According to US20100204460A1, “NATURAL BRASSINOSTEROIDS FOR USE FOR TREATING HYPERPROLIFERATION, TREATING PROLIFERATIVE DISEASES AND REDUCING ADVERSE EFFECTS OF STEROID DYSFUNCTION IN MAMMALS, PHARMACEUTICAL COMPOSITION AND ITS USE” (priority 2007, published 2010):
Several values for one entry are separate records, joined by “and”; a condition that tells them apart may be missing. Equal values may be shown once. Entries after “also recorded” stand apart in the source; their conditions may differ.

Assays:
Format in all cases: cell-based
[1] = system: multiple myeloma cell line RPMI 8226; assay: Calcein AM cytotoxicity assay, RPMI 8226; settings: RPMI 8226; exposure 72 h (b71 says 96 h); mean ± SD; read-out: IC50 assessed by Calcein AM assay of surviving cells
[2] = system: MDA-MB-468 (estrogen receptor-α-negative) breast cancer cell line; assay: MTT cytotoxicity test, MDA-MB-468; settings: 24 h, mean ± SD, read-out: IC50 determined by MTT cytotoxicity test
Protocol: (§1) 3-(4,5-Dimethylthiazol-2-yl)-2,5-diphenyltetrazolium bromide (MTT) was from Serva Electrophoresis (Heidelberg, Germany). Monoclonal mouse anti-bromodeoxyuridine (BrdU) intibody was obtained from DakoCytomation (Glostrup, Denmark). Calcein AM was obtained from PAA Laboratories GmbH (Pasching, Austria). […] All other cells were cultured in DMEM medium (Sigma, MO, USA). All used media were supplemented with 10% heat-inactivated fetal bovine serum, 2 mmol/L L-glutamine, 1% penicillin/streptomycin. The cell lines were maintained under standard cell culture conditions at 37° C. and 5% CO2 in a humid environment. Cells were subcultured twice or three times a week using the standard trypsinization procedure (Sigma, USA).
(§2) Cell viability in this case was assessed by 3-(4,5-dimethylthiozol-2-yl)-2,5-diphenyltetrazolium bromide (MTT) to determine IC50 concentrations of studied agents as described previously. […] The cells (70% to 80% confluent) were treated with brassinosteroids for 6, 12 and 24 h in cell culture medium. Cells that were used as controls were incubated with the maximum used amount of steroid diluent DMSO only. […] The absorbance was read using an ELISA reader Labsystem Multiscan RC at 570 nm. The viability of treated cells was related to the viability of control cells that represented 100% viability. […]

[3] = system: DU-145 (androgen-insensitive) prostate cancer cell line; assay: MTT cytotoxicity test, DU-145; settings: 24 h, mean ± SD, read-out: IC50 determined by MTT cytotoxicity test
Protocol: as §1, §2

LNCaP cells [4] = assay: TUNEL detection of apoptosis, LNCaP; settings: IC50 concentration
Protocol: (§3) TdT-Mediated dUTP nick end labeling (TUNEL) detection of apoptosis index. For detection of apoptotic cells, the TUNEL assay was used. […] After period of treatment, the cells were washed with PBS and fixed on the slides with cold acetone-methanol (1:1, v/v) for 10 min. Apoptosis-induced nuclear DNA fragmentation was detected by terminal deoxynucleotidyl transferase-mediated UTP nick end labeling (TUNEL) technique according to the producer protocol (In Situ Cell Death Detection Kit; Roche Diagnostics, Mannheim, Germany). The cells were then washed three times in PBS and stained with 4′-6-diamidino-2-phenylindole (DAPI; 50 μg/ml; Sigma, St. Louis, Mo., USA) for 10 min in the dark. The coverslips with cells were washed in deionized water and mounted on glass slides, using the hydrophilic medium Mowiol (Calbiochem, Fremont, Calif., USA) in glycerol-PBS (1:3, v/v) for fluorescence. Cells were visualized using fluorescence microscopy and compared with control cells. TUNEL staining achieved to confirm apoptosis in all cell lines.

DU-145 cells = assay: TUNEL detection of apoptosis, DU-145; settings: IC50 concentration, control 0.0 ± 0.0
Protocol: as §3

LNCaP cells [5] = assay: Western blot of cell cycle and apoptosis related proteins, LNCaP; settings: IC50 for 6, 12, 24 h vs untreated control
Protocol: The cells were seeded in a density 1.6×10^4 cells/cm^2 (LNCaP), 1.4×10^4 cells/cm^2 (DU-145, MDA-MB-468 and MCF-7) using culture medium in 100-mm culture Petri dishes. After reaching of 70-80% confluence, the cells were treated with tested compounds 9 in concentration IC50 that were evaluated by MTT analysis described above. DMSO was used as a vehicle for controls. After 6, 12 and 24 h treatment, the cells were washed with cold PBS and scraped in ice-cold protein extract ion buffer (50 mM HEPES, pH 7.5; 150 mM NaCl; 1 mM EDTA; 2.5 mM EGTA; 10% glycerol; 0.1% Tween 20) with protease and phosphatase inhibitors (25 μL/mL phenylmethanesulphonyl fluoride; 2.5 μL/mL leupeptin; 0.1 mM Na3VO4; 2.5 μL/mL aprotinin; 10 mM β-glycerol-phosphate; 1 mM dithiothreitol). The lysates were collected into microfuge tube and incubated on ice for 1 h. Cells were incubated 60 min at 4° C. under time by time shaking in protein extraction buffer. After centrifugation at 45 000×g for 30 min at 4° C., supernatant was collected, aliquoted, and stored at −80° C. The protein content in the lysates was measured by a Bredford assay (Bio-Rad Laboratories, Hercules, Calif., USA) according to the manufacture's protocol.
For Western blot analysis, equal aliquots of proteins (15-30 μg/well) were loaded on 10% or 12% SDS-PAGE gels and transferred onto nitrocellulose membranes (Amersham Biosciences, Vienna, Austria) by semi-dry electrophoretic transfer. Coloured marker (Rainbow™, Amersham Biosciences, Vienna, Austria) was used as a protein molecular weight standard. The non-specific binding sites were blocked by incubating the blot with 5% (w/v) non-fat dry milk in PBS for 2 h. The blot was incubated overnight in 4° C. with appropriate primary antibody that detects the protein epitope of interest and finally washed in PBS with 0.1% Tween 20 for 1 h. The blot was incubated with the diluted secondary goat anti-mouse IgG-horseradish peroxidase conjugated antibody (dilution 1:6000, Santa Cruz Biotechnology, Santa Cruz, Calif., USA) or goat anti-rabbit IgG-horseradish peroxidase conjugated antibody (dilution 1:2000, DakoCytomation, Glostrup, Denmark) for 45 min in 4° C. The membrane was washed in PBS with 0.1% Tween 20 for 1 h. The proteins were detected using a chemiluminescence detection system (Amersham Biosciences, Vienna, Austria) according to the protocol provided by the manufacturer. Equality of loaded proteins was confirmed by Ponceau S membrane staining (Sigma, St. Louis, Mo., USA) and by detection of anti-tubulin-α or anti-mcm-7 antibodies. The experiments were repeated three times. The protein expressions in treated cells were compared to untreated controls.
Western blot analysis was used to detect changes in apoptosis related protein expression in breast and prostate cancer cell lines. […] This decreased expression of Bid can indicate a cleavage of the protein after treatment by BRs. In DU-145 cell line, expression of pro-apoptotic proteins Bax and Bid was unchanged. […] On the other hand, caspase cleavage was not found in DU-145 cells. Poly-(ADP-ribose) polymerase (PARP) positive expression in controls of prostate cancer cell lines was observed but brassinosteroids had no effect on its expression nor on its degradation within the period 6/12/24 h (FIG. 6B).

Compound | IC50 [1] | IC50 [2] | IC50 [3] | percentage of TUNEL positive cells (LNCaP cells [4]; 6 h, control 0.3 ± 0.6) | percentage of TUNEL positive cells (LNCaP cells [4]; 12 h, control 0.6 ± 0.6) | percentage of TUNEL positive cells (LNCaP cells [4]; 24 h, control 0.6 ± 0.6) | percentage of TUNEL positive cells (DU-145 cells; 6 h) | percentage of TUNEL positive cells (DU-145 cells; 12 h) | percentage of TUNEL positive cells (DU-145 cells; 24 h) | MDM-2 expression (Western blot) (LNCaP cells [5]) | anti-apoptotic protein Bcl-2 expression (Western blot) (LNCaP cells [5]) | caspase-3 cleavage / activation (Western blot) (LNCaP cells [5]) | p21Waf1/Cip1 expression (Western blot) (LNCaP cells [5]) | p27Kip1 expression (Western blot) (LNCaP cells [5]) | p53 expression (Western blot) (LNCaP cells [5]) | pro-apoptotic Bax level (Western blot) (LNCaP cells [5])
CC(C)[C@@H](C)[C@@H](O)[C@H](O)[C@@H](C)[C@H]1CC[C@H]2[C@@H]3COC(=O)[C@H]4C[C@H](O)[C@H](O)C[C@]4(C)[C@H]3CC[C@]12C [Brassinosteroid 6, 24-Epibrassinolide] | > 50 µM | 68 ± 2.5 µM | 65 ± 0.9 µM | 10.7 ± 4.0 % | 12.2 ± 5.1 % | 21.9% and 21.9 ± 3.0 % | 4.7 ± 2.5 % | 5.6 ± 2.0 % | 5.1 ± 5.6 % | unchanged | decreased after treatment with 9 (6, 12 and 24 h) or 6 (6 and 24 h) | activation of caspase-3 after 24 h; also recorded: degradation of procaspase-3 into cleaved fragments was detected after all time points of treatment with 9 and after 24 h treatment with 6 | decreased expression of p21^Waf1/Cip1 after 6 and 24 h | decreased expression of p21^Waf1/Cip1 after 6 and 24 h treatment and p27^Kip1 protein expression after 6 and 12 h | decreased expression of p53 after brassinosteroids 9 or 6 treatment was found after 12 and 24 h | 
CC[C@@H](C(C)C)[C@@H](O)[C@H](O)[C@@H](C)[C@H]1CC[C@H]2[C@@H]3CC(=O)[C@H]4C[C@H](O)[C@H](O)C[C@]4(C)[C@H]3CC[C@]12C [Brassinosteroid 9, 28-Homocastasterone] | 26 ± 1.4 µM | 65 ± 2.8 µM | 45 ± 2.8 µM | 7.3 ± 2.1 % | 15.7 ± 2.5 % | 25.8% and 25.8 ± 2.5 % | 6.0 ± 2.0 % | 7.5 ± 4.0 % | 8.0 ± 4.0 % | increased after 9 treatment (6 h) | decreased after treatment with 9 (6, 12 and 24 h); also recorded: significant decrease in the levels of anti-apoptotic Bcl-2 protein | induced degradation of caspase-3 into its cleaved fragments after all time points (6, 12 and 24 h); also recorded: degradation of procaspase-3 into cleaved fragments was detected after all time points | decreased level of p21^Waf1/Cip1 after 12 h | increased level of p27^Kip1 after 24 h | decreased expression of p53 after brassinosteroids 9 or 6 treatment was found after 12 and 24 h | increased level of pro-apoptotic Bax after the 9 treatment after 6 and 12 h; also recorded: increase in the pro-apoptotic Bax protein
